22 compounds from ChEMBL document CHEMBL1128925, “Novel inhibitors of cell adhesion molecule expression” (Bioorg Med Chem Lett, 1996) can be followed below.

Test [1] relates to HUVEC. Kind of test: Compound was evaluated for inhibition of expression of VCAM-1 in IL-1 beta activated human umbilical vein endothelial cells(HUVECs) by using ELISA at 30 uM. It is filed as functional.
Test [2] has as its system HUVEC. Kind of test: Compound was evaluated for inhibition of expression of ELAM-1 in IL-1 beta activated human umbilical vein endothelial cells(HUVECs) by using ELISA at 30 uM. It is filed as functional.
The test system of test [3] is HUVEC. Kind of test: Compound was evaluated for inhibition of expression of ELAM-1 in IL-1 beta activated human umbilical vein endothelial cells(HUVECs) by using ELISA. It is filed as functional, cell-based.
The test system of test [4] is HUVEC. Kind of test: Compound was evaluated for inhibition of expression of VCAM-1 in IL-1 beta activated human umbilical vein endothelial cells(HUVECs) by using ELISA. In kind it is functional, cell-based.
For the next test, the species on record is Mus musculus. Kind of test: Compound was evaluated for inhibition of neutrophil recruitment in a mouse skin immune complex model. In kind it is functional. Further details: concentration or dose not given beside the values.

As for `COc1c(C)cnc(C[S+]([O-])c2nnc(-c3cccc(C(F)(F)F)c3)o2)c1C` (configuration not stated), the inhibition at 30 µM in the test with HUVEC [1] turned out to be 85%; in the test on HUVEC [2], 70%.
For `CCCCCc1nnc([S+]([O-])Cc2ncc(C)c(OC)c2C)o1` (configuration not stated), in that order: 70% and 45%.
For `COc1c(C)cnc(C[S+]([O-])c2nnc(-c3ccc(C(F)(F)F)cc3)o2)c1C` (configuration not stated), in that order: 70% and 50%.
Take `COc1c(C)cnc(C[S+]([O-])c2nnc(-c3ccc(F)cc3)o2)c1C` (configuration not stated): the values for the IC50 in the test with HUVEC [3] and in the test with HUVEC [4] were 14 µM and 11 µM, respectively.
For `CCCc1nnc([S+]([O-])Cc2ncc(C)c(OC)c2C)o1` (configuration not stated), in that order: 10 µM and 8 µM.
For the compound `Cc1nnc([S+]([O-])c2c(C)cccc2C)o1` (configuration not stated), the inhibition at 30 µM in the test on HUVEC [1] and with HUVEC [2] was 0% each time.
On to `[O-][S+](Cc1ccccc1)c1nnc(-c2ccccc2O)o1` (configuration not stated), for which the values for the IC50 in the test on HUVEC [3] and with HUVEC [4] were 8 µM and 6 µM, respectively.
Take `COc1ccnc2c1CCCCC2[S+]([O-])c1nnc(C)o1` (configuration not stated): the inhibition at 30 µM in the test on HUVEC [1] and in the test with HUVEC [2] was 0% in each case.
For the compound `CCc1nnc([S+]([O-])Cc2ncc(C)c(OC)c2C)o1` (configuration not stated), the half-inhibitory concentration (IC50) in the test on HUVEC [3] is 12 µM; with HUVEC [4], 10 µM.
On to `COc1c(C)cnc(C[S+]([O-])c2nnc(-c3ccccc3O)o2)c1C` (configuration not stated), for which the concentration for half-maximal inhibition (IC50) was 10 µM in the test on HUVEC [3] and 8 µM in the test on HUVEC [4]. In the test listed under Mus musculus, this compound showed an Inhibition of 20%.
For `[O-][S+](Cc1ccccc1)c1nnc(-c2cccnc2)o1` (configuration not stated), the values for the 50% inhibitory concentration (IC50) in the test with HUVEC [3] and in the test with HUVEC [4] were 8 µM and 6 µM, respectively. The same compound registered an Inhibition in the test listed under Mus musculus of 50%.
Regarding `COc1c(C)cnc(C[S+]([O-])c2nnc(-c3cccc(F)c3)o2)c1C` (configuration not stated), the results for the 50% inhibitory concentration (IC50) in the test on HUVEC [3] and with HUVEC [4] were 15 µM and 12 µM, respectively.
For `[O-][S+](Cc1ccccc1)c1nnc(-c2ccncc2)o1` (configuration not stated), the concentration for half-maximal inhibition (IC50) in the test on HUVEC [3] was 4 µM; in the test on HUVEC [4] it was 3 µM. This compound came in with an Inhibition in the test filed under Mus musculus of 55%.
For `COc1c(C)cnc(C[S+]([O-])c2nnc(C)o2)c1C` (configuration not stated), in that order: 10 µM, 8 µM and 55%.
Consider `Cc1nnc([S+]([O-])Cc2ccccn2)o1` (configuration not stated), for which the inhibition at 30 µM worked out at 80% in the test with HUVEC [1] and 60% in the test on HUVEC [2]. In the test filed under Mus musculus, this compound showed an Inhibition of 40%.
As to `COc1c(C)cnc(C[S+]([O-])c2nnc(-c3cccn3C)o2)c1C` (configuration not stated), the IC50 came out at 6 µM in the test on HUVEC [3] and 4 µM in the test on HUVEC [4].
Regarding `[O-][S+](Cc1ccccc1)c1nnc(-c2cccs2)o1` (configuration not stated), the concentration for half-maximal inhibition (IC50) in the test on HUVEC [3] is 7 µM; in the test on HUVEC [4] it was 6 µM. In the test filed under Mus musculus, this compound came in with an Inhibition of 40%.
Regarding `Cc1nnc([S+]([O-])Cc2ccccc2)o1` (configuration not stated), the inhibition at 30 µM in the test on HUVEC [1] worked out at 35%; with HUVEC [2], 20%.
For `CCCCc1nnc([S+]([O-])Cc2ncc(C)c(OC)c2C)o1` (configuration not stated), in that order: 85% and 60%.
`COc1c(C)cnc(C[S+]([O-])c2nnc(-c3cccs3)o2)c1C` (configuration not stated): the half-inhibitory concentration (IC50) in the test with HUVEC [3] turned out to be 5 µM; in the test with HUVEC [4], 3 µM.
For the compound `COc1c(C)cnc(C[S+]([O-])c2nnc(-c3ccccc3)o2)c1C` (configuration not stated), the figures for the IC50 in the test on HUVEC [3] and in the test with HUVEC [4] were 7 µM and 6 µM, respectively. Moreover, the Inhibition in the test listed under Mus musculus turned out to be 25%.
For `[O-][S+](Cc1ccccc1)c1nnc(-c2ccccn2)o1` (configuration not stated), in that order: 5 µM, 4 µM and 80%.
